Results taken from patent US20240067665A1, “SMALL MOLECULES FOR BORON NEUTRON CAPTURE THERAPY” (Aviko Radiopharmaceuticals, LLC, priority 2022, published 2024).

How the values were obtained:
Conditions in all cases: 100 uM
SAS (head & neck cancer) = assay: Cell uptake assay, SAS cells; format: cell-based, human
Method: (§1) • 1.1.1 15 mL of cell culture medium was placed into a T225 flask. • 1.1.2 The flask was placed in a humidified 37° C., 5% CO2 incubator for 15 minutes to allow medium to equilibrate to the proper pH and temperature. • 1.1.3 The vial was removed from liquid nitrogen and thawed rapidly by placing at 37° C. in a water bath with gentle agitation for 1-2 minutes and then decontaminated by wiping with 70% ethanol before opening in a Class II biological safety cabinet. • 1.1.4 The vial contents were transferred dropwise into 10 mL of cell culture medium in a sterile 15 mL conical tube. • 1.1.5 The cells were centrifuged at 1,300 rpm for 5 minutes. • 1.1.6 The supernatant was aspirated and re-suspended the cells and transferred the cells into T225 flask containing cell culture medium.
(§2) • 1.2.1 Culture medium were renewed every 2-3 days. • 1.2.2 Keep the flask in a humidified 37° C., 5% CO2 incubator
(§3) • Cells were harvested and diluted in culture medium to the designated concentration. Then the cells were cultured in T25 flasks, one T25 flask for one sample. 2.2 Formulation of test compounds • 2.2.1 L-Boronophenylalanine (L-BPA, 4-boron-L-phenylalanine, Purity: 95%, Chemical formula: C9H12BNO4, MW: 209.01, CAS: 76410-58-7) and fructose were dissolved in PBS at a molar ratio of 1:5, and then a 1.27 M ratio of 1 N NaOH is added. The mixture was stirred until L-BPA is completely dissolved, and the pH value was titrated to 7.2-7.4 with 1 N HC1. • 2.2.2 For test compounds other than BPA, stock solutions were prepared of each compound in DMSO or fructose formulation at a concentration of 20 mM (such that final % DMSO in the cellular assay medium=0.5%) 2.3 Compound treatment • 2.3.1 The cells were seeded overnight (12-18 hours) to allow the cells to adhere well. • 2.3.2 The stock solution of each compound was added to each T25 flask such that the final concentration for each compound is 100 uM (0.1 mM). • 2.3.3 The flasks were placed in a 37° C., 5% CO2 incubator for 1 hour, 4 hours and 24 hours. • 2.3.4 After treatment for 1 hour, 4 hour, and 24 hours, the cells were collected by using 0.25% Trypsin with 0.53 mM EDTA. • 2.3.5 Centrifuged at 1,300 rpm for 5 min to collect cell pellets.

U87-MG (glioblastoma) = assay: Cell uptake assay, U87-MG cells; format: cell-based, human
Method: as §1, §2, §3

B16F10 = assay: Cell uptake assay, B16F10 cells; format: cell-based, mouse
Method: as §1, §2, §3

NIH-3T3 = assay: Cell uptake assay, NIH-3T3 cells; format: cell-based, mouse
Method: as §1, §2, §3

| Structure (SMILES) | Cell uptake, Mean, SAS (SAS (head & neck cancer); 1 hour) | Cell uptake, Mean, SAS (SAS (head & neck cancer); 4 hours) | Cell uptake, Mean, SAS (SAS (head & neck cancer); 24 hours) | Cell uptake, Mean, U87-MG (U87-MG (glioblastoma); 1 hour) | Cell uptake, Mean, U87-MG (U87-MG (glioblastoma); 4 hours) | Cell uptake, Mean, U87-MG (U87-MG (glioblastoma); 24 hours) | Cell uptake, Mean, B16F10 (B16F10; 1 hour) | Cell uptake, Mean, B16F10 (B16F10; 4 hours) | Cell uptake, Mean, NIH-3T3 (NIH-3T3; 1 hour) | Cell uptake, Mean, NIH-3T3 (NIH-3T3; 4 hours) | Cell uptake, Mean, B16F10 (B16F10; 24 hours) | Cell uptake, Mean, NIH-3T3 (NIH-3T3; 24 hours) |
| --- | --- | --- | --- | --- | --- | --- | --- | --- | --- | --- | --- | --- |
| NC(Cc1ccc(CCB(O)O)cc1F)C(=O)O (single isomer, unassigned) [compound 8, (S*)-2-amino-3-(4-(2-boronoethyl)-2-fluorophenyl)propanoic acid] | 44.6 ng/10^6 cell | 66.7 ng/10^6 cell | 359 ng/10^6 cell | 16.7 ng/10^6 cell | 31.1 ng/10^6 cell | 16.3 ng/10^6 cell | 26.9 ng/10^6 cell | 31.4 ng/10^6 cell | 14.7 ng/10^6 cell | 26.4 ng/10^6 cell | – | – |
| NC(Cc1ccc(CCB(O)O)cc1F)C(=O)O (single isomer, unassigned) [compound 9, (R*)-2-amino-3-(4-(2-boronoethyl)-2-fluorophenyl)propanoic acid] | 129 ng/10^6 cell | 103 ng/10^6 cell | 211 ng/10^6 cell | 90.1 ng/10^6 cell | – | 74.6 ng/10^6 cell | – | 66.7 ng/10^6 cell | 34.4 ng/10^6 cell | 43.0 ng/10^6 cell | 119 ng/10^6 cell | 37.2 ng/10^6 cell |
| N[C@@H](Cc1cccc(OCB(O)O)c1)C(=O)O [compound 1, (S)-2-amino-3-(3-(boronomethoxy)phenyl)propanoic acid] | – | 755 ng/10^6 cell | 828 ng/10^6 cell | 227 ng/10^6 cell | 233 ng/10^6 cell | 336 ng/10^6 cell | 112 ng/10^6 cell | 232 ng/10^6 cell | 127 ng/10^6 cell | 194 ng/10^6 cell | 517 ng/10^6 cell | 133 ng/10^6 cell |
| N[C@@H](Cc1ccc(OCB(O)O)cc1F)C(=O)O [compound 2, (S)-2-amino-3-(4-(boronomethoxy)-2-fluorophenyl)propanoic acid] | 1125 ng/10^6 cell | 1590 ng/10^6 cell | 1595 ng/10^6 cell | 123 ng/10^6 cell | – | 626 ng/10^6 cell | 151 ng/10^6 cell | 333 ng/10^6 cell | – | – | 881 ng/10^6 cell | 205 ng/10^6 cell |
| N[C@@H](Cc1ccc(OCCB(O)O)cc1)C(=O)O [compound 3, (2S)-2-amino-3-{4-[2-(dihydroxyboranyl)ethoxy]phenyl}propanoic acid] | 534 ng/10^6 cell | 499 ng/10^6 cell | – | 197 ng/10^6 cell | 211 ng/10^6 cell | 183 ng/10^6 cell | 145 ng/10^6 cell | 222 ng/10^6 cell | 132 ng/10^6 cell | 138 ng/10^6 cell | 117 ng/10^6 cell | – |
| NC(Cc1ccc(OCB(O)O)cc1)C(=O)O (stereo not shown) [compound 4, 2-amino-3-{4-[(dihydroxyboranyl)methoxy]phenyl}propanoic acid] | 445 ng/10^6 cell | 495 ng/10^6 cell | 997 ng/10^6 cell | 42.8 ng/10^6 cell | 113 ng/10^6 cell | 191 ng/10^6 cell | 46.1 ng/10^6 cell | 95.6 ng/10^6 cell | 27.1 ng/10^6 cell | 58.6 ng/10^6 cell | 101 ng/10^6 cell | 66.6 ng/10^6 cell |
| N[C@@H](Cc1cccc(CCB(O)O)c1)C(=O)O [compound 5, (S)-2-amino-3-(3-(2-boronoethyl)phenyl)propanoic acid] | – | 225 ng/10^6 cell | 214 ng/10^6 cell | – | – | – | – | 157 ng/10^6 cell | 171 ng/10^6 cell | 77.2 ng/10^6 cell | 262 ng/10^6 cell | – |
| N[C@@H](Cc1ccc(OCCB(O)O)cc1F)C(=O)O [compound 6, (2S)-2-amino-3-{4-[2-(dihydroxyboranyl)ethoxy]-2-fluorophenyl}propanoic acid] | 152 ng/10^6 cell | 106 ng/10^6 cell | 46.0 ng/10^6 cell | 160 ng/10^6 cell | 137 ng/10^6 cell | – | – | 92.3 ng/10^6 cell | 53.4 ng/10^6 cell | 23.2 ng/10^6 cell | – | – |
| N[C@@H](Cc1ccc(OCB(O)O)c(F)c1)C(=O)O [compound 10, (2S)-2-amino-3-{4-[(dihydroxyboranyl)methoxy]-3-fluorophenyl}propanoic acid] | 1285 ng/10^6 cell | 1850 ng/10^6 cell | – | 295 ng/10^6 cell | 673 ng/10^6 cell | 681 ng/10^6 cell | – | 442 ng/10^6 cell | 81.9 ng/10^6 cell | 204 ng/10^6 cell | 814 ng/10^6 cell | – |
| N[C@@H](Cc1ccc(F)c(OCB(O)O)c1)C(=O)O [compound 11, (2S)-2-amino-3-{3-[(dihydroxyboranyl)methoxy]-4-fluorophenyl}propanoic acid] | 529 ng/10^6 cell | 454 ng/10^6 cell | 999 ng/10^6 cell | 113 ng/10^6 cell | 322 ng/10^6 cell | 309 ng/10^6 cell | 50.6 ng/10^6 cell | 121 ng/10^6 cell | 32.4 ng/10^6 cell | 92.8 ng/10^6 cell | 202 ng/10^6 cell | 122 ng/10^6 cell |
| N[C@@H](Cc1cc(F)cc(OCB(O)O)c1)C(=O)O [compound 13, (2S)-2-amino-3-[3-[(dihydroxyboranyl)methoxy]-5-fluorophenyl]propanoic acid] | 903 ng/10^6 cell | 1012 ng/10^6 cell | 1077 ng/10^6 cell | 521 ng/10^6 cell | 828 ng/10^6 cell | 735 ng/10^6 cell | 180 ng/10^6 cell | 310 ng/10^6 cell | 183 ng/10^6 cell | 222 ng/10^6 cell | 304 ng/10^6 cell | 168 ng/10^6 cell |
| N[C@@H](Cc1cccc(C2(B(O)O)CC2)c1)C(=O)O [compound 14, (2S)-2-amino-3-{3-[1-(dihydroxyboranyl)cyclopropyl]phenyl}propanoic acid] | – | – | – | – | – | – | – | – | – | 444 ng/10^6 cell | – | – |
| N[C@@H](Cc1ccc(C2(B(O)O)CC2)cc1)C(=O)O [compound 15, (2S)-2-amino-3-{4-[1-(dihydroxyboranyl)cyclopropyl]phenyl}propanoic acid] | 491 ng/10^6 cell | 283 ng/10^6 cell | 419 ng/10^6 cell | 225 ng/10^6 cell | 337 ng/10^6 cell | 269 ng/10^6 cell | 193 ng/10^6 cell | – | 223 ng/10^6 cell | 185 ng/10^6 cell | 458 ng/10^6 cell | 169 ng/10^6 cell |
